This assay addresses T1, Ox-R2 (orexin R2 receptor) (Homo sapiens, UniProt O43614).
T1 construct: gene HCRTR2
T1 sequence (O43614 1-444): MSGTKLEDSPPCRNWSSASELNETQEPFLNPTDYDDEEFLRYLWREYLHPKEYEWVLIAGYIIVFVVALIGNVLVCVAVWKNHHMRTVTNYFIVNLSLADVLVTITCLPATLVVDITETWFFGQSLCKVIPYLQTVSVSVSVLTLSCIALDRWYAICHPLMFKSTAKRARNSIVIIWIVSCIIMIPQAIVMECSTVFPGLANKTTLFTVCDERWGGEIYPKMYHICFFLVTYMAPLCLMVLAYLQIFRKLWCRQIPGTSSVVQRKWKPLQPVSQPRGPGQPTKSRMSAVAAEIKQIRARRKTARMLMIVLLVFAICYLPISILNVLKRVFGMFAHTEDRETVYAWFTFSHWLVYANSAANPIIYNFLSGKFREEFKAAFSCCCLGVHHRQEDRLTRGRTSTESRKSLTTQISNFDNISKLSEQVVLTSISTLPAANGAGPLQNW
In words: FLUO-3 calcium mobilization in HEK-293 cells, inhibition of […] orexin-B response. Format: cell-based.

Each structure is given as a SMILES string.

For `CNC(=O)[C@@H](c1ccccc1)N1CCc2cc(OC)c(OC)cc2[C@@H]1CCc1ccc(C(F)(F)F)cc1` [almorexant], the IC50 came to 332 ± 13 nM.

These data come from article PMC3448615 (PLoS ONE, 2012).
